Laboratory results as given in patent publication US10512634B2, “Benzimidazole derivates useful as inhibitors of mammalian histone deacetylase activity” (KANCERA AB, priority 2015, dated 2019).
Counter-ions that a name gives are not always drawn. Like-named read-outs stand apart in the source and are kept apart here.

Columns and labels:
HDAC2 = HDAC2 (Homo sapiens (Human), UniProt Q92769); test: HDAC in vitro enzymatic assay (fluorescence); conditions: read-out: IC50 HDAC2; selectivity profiling; top concentration 200 μM
HDAC6 = HDAC6 (Homo sapiens (Human), UniProt Q9UBN7); test: HDAC in vitro enzymatic assay (fluorescence); assay type: biochemical; conditions: top concentration 2 μM
Description: Biological Tests Method for Measurement of Enzymatic Activity of HDACs Materials & Methods
All Examples were tested in HDAC1, 2, 3, 6 and 8 in vitro enzymatic assays. The assay principle is well known (Hauser et al. 2009, Bradner et al. 2010) and all necessary reagents like enzymes, substrates, developer and reference compounds are commercially available (see e.g. BPS Biosciences http://www.bpsbioscience.com/). A series of dilutions of the compounds were prepared with a top concentration of 200 μM (2 μM for HDAC6). The enzymatic reactions were conducted in a mixture containing assay buffer, bovine serum albumin, HDAC substrate, and a test compound. After enzymatic reaction, developer was added and after an additional incubation time, fluorescence intensity was measured at an excitation wavelength of 360 nm and an emission wavelength of 460 nm. A selection of the Examples were tested in a full HDAC panel containing HDAC1, 2, 3, 4, 5, 6, 7, 8, 9, 10 and 11 in vitro enzymatic assays. The tests were performed as above except that a series of dilutions of the compounds were prepared with a top concentration of 10 μM for all HDACs.

U266 (multiple myelom) = test: CellTiter-Blue cell viability assay; assay type: cell-based; conditions: Homo sapiens, read-out: IC50 U266 (cell viability)
Description: (§1) Method for Measurement of Cell Viability
(§2) The CellTiter-Blue® Cell Viability Assay (Promega) provides a homogeneous, fluorometric method for estimating the number of viable cells present in multi-well plates. The assay uses the indicator dye resazurin to measure the metabolic capacity of cells. Viable cells retain the ability to reduce resazurin into resorufin, which is highly fluorescent.
(§3) Stock solutions (10 mM in DMSO) of compounds were serially diluted 1:2 in 11 concentrations. 50 nL/well (10 mM compound stock in DMSO) was acoustically dispensed in 384-well assay plates with an acoustic dispenser (EDC Biosystems ATS-100AV). Final starting concentration in the assay was 20 μM (0.2% DMSO) for test compounds. […] After 72 hours, Celltiter Blue reagent (Promega #G8081) was diluted 1:10 with PBS and then added to wells (5 μL/well). The plates were incubated for 2 hours following addition of reagent. […] Results were calculated as % cell viability compared to background (cells treated with 0.2% DMSO).

PaCa2 (pancreatic) = test: CellTiter-Blue cell viability assay; assay type: cell-based; conditions: read-out: IC50 PaCa2 (cell viability)
Description: as §1, §2, §3

[1] = test system: PBMC (peripheral blood mononuclear cells from healthy donors); test: CellTiter-Blue cell viability assay; assay type: cell-based; conditions: read-out: IC50 healthy PBMC (cell viability)
Description: as §1, §2, §3

AMO-1 (plasmacytom) = test: CellTiter-Blue cell viability assay; assay type: cell-based; conditions: Homo sapiens, read-out: IC50 AMO-1 (cell viability)
Description: as §1, §2, §3

HDAC1 = HDAC1 (Homo sapiens (Human), UniProt Q13547); test: HDAC in vitro enzymatic assay (fluorescence); conditions: read-out: IC50 HDAC1; selectivity profiling; top concentration 200 μM
HDAC3 = HDAC3 (Homo sapiens (Human), UniProt O15379); test: HDAC in vitro enzymatic assay (fluorescence); conditions: read-out: IC50 HDAC3; selectivity profiling; top concentration 200 μM
HDAC8 = HDAC8 (Homo sapiens (Human), UniProt Q9BY41); test: HDAC in vitro enzymatic assay (fluorescence); conditions: read-out: IC50 HDAC8; selectivity profiling; top concentration 200 μM
[2] = selectivity profiling, read-out: IC50 HDAC6
[3] = read-out: IC50 values for inhibition of HDAC6
[4] = U-266, U266 cells, 72 hours of treatment
[5] = PaCa-2, PaCa2 cells, 72 hours of treatment
[6] = healthy PBMC, 72 hours of treatment
[7] = AMO1, AMO-1 cells, 72 hours of treatment

HDAC1, sequence (Q13547 whole entry): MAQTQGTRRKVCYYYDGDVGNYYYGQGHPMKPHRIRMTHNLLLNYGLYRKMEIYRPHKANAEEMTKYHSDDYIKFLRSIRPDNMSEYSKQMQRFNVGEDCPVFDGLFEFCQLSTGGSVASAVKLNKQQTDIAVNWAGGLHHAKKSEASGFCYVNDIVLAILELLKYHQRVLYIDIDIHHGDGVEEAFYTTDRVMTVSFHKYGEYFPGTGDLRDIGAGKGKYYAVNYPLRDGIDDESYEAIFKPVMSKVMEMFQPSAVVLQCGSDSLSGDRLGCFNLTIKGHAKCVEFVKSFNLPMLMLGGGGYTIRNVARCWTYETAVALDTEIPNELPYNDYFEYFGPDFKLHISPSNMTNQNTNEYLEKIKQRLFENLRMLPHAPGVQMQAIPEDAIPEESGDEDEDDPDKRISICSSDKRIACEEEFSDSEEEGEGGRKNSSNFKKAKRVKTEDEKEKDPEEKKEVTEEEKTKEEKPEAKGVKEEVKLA
HDAC2, sequence (Q92769 whole entry): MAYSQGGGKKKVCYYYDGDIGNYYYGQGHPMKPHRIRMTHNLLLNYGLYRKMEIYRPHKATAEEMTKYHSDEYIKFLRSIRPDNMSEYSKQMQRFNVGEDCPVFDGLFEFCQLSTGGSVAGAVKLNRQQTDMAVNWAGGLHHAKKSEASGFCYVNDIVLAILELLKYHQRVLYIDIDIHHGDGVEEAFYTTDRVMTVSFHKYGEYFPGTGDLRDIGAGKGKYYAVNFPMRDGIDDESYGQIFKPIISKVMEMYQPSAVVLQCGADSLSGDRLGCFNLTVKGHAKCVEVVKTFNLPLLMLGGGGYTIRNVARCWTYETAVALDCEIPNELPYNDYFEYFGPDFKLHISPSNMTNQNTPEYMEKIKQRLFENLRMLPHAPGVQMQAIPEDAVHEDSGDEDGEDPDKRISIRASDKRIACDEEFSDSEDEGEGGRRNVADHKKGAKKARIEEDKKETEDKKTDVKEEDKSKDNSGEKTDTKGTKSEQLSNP
HDAC3, sequence (O15379 whole entry): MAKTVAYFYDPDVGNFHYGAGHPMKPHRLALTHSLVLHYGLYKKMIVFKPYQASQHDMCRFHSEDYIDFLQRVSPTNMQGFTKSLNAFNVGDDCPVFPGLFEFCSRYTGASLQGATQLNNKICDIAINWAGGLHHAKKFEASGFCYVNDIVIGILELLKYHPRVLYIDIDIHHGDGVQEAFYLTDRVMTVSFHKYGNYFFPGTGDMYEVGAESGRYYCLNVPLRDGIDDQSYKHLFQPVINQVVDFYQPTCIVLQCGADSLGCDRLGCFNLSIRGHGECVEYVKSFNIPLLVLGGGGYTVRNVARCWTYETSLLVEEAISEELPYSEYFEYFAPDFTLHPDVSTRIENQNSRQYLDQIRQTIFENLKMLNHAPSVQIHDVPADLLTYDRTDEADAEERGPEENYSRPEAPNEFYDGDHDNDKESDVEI
HDAC3, sequence (Q9Y618 395-489 partner): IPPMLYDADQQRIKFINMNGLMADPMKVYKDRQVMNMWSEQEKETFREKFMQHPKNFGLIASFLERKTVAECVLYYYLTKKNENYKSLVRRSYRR
HDAC8, sequence (Q9BY41 whole entry): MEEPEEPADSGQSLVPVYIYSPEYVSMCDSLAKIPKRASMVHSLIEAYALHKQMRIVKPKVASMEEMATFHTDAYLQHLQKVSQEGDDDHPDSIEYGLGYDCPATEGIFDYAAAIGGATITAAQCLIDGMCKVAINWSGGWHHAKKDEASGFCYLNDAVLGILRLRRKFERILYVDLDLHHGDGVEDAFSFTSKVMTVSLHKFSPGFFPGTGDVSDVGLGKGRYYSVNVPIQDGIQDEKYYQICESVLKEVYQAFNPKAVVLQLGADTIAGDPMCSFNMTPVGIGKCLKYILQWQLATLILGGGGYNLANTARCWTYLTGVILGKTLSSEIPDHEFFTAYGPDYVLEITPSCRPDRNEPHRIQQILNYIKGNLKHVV

| IC50 (U266 (multiple myelom); [4]) [nM] | Structure (SMILES) | IC50 (HDAC2) [nM] | IC50 (HDAC6; [2]) [nM] | IC50 (HDAC6; [3]) [nM] | IC50 (U266 (multiple myelom); U-266, 72 h) [nM] | IC50 (PaCa2 (pancreatic); PaCa-2, 72 h) [nM] | IC50 ([1]; PBMC, 72 h) [nM] | IC50 (AMO-1 (plasmacytom); AMO1, 72 h) [nM] | IC50 (HDAC1) [nM] | IC50 (HDAC3) [nM] | IC50 (HDAC8) [nM] | IC50 (PaCa2 (pancreatic); [5]) [nM] | IC50 [1, 6] [nM] | IC50 (AMO-1 (plasmacytom); [7]) [nM] |
| --- | --- | --- | --- | --- | --- | --- | --- | --- | --- | --- | --- | --- | --- | --- |
| 1200 | CC(C)(C)c1ccc(-c2nc3ccc(C(=O)NO)cc3[nH]2)cc1 [Example 159, 2-(4-tert-butylphenyl)-N-hydroxy-1H-benzimidazole-6-carboxamide] |  |  | 19 |  |  |  |  |  |  |  | 2100 | > 20000 | 6300 |
| 3900 | O=C(NO)c1ccc2nc(-c3cccc(C(F)(F)F)c3Cl)[nH]c2c1 [Example 34, 2-[2-chloro-3-(trifluoromethyl)phenyl]-N-hydroxy-1H-benzimidazole-6-carboxamide] |  |  |  |  |  |  |  |  |  |  | 12000 | > 20000 | 10000 |
| 2100 | COc1ccc2cc(-c3nc4ccc(C(=O)NO)cc4[nH]3)ccc2c1 [Example 10, N-hydroxy-2-(6-methoxynaphthalen-2-yl)-1H-benzimidazole-6-carboxamide] |  |  |  |  |  |  |  |  |  |  | 1200 | > 20000 | 2200 |
| 2000 | O=C(NO)c1ccc2nc(-c3ccc(Oc4ccccc4)cc3)[nH]c2c1 [Example 8, N-hydroxy-2-(4-phenoxyphenyl)-1H-benzimidazole-6-carboxamide] |  |  |  |  |  |  |  |  |  |  | 1700 | > 20000 | 2300 |

The next lines start with the compound.

| Structure (SMILES) | IC50 (U266 (multiple myelom); [4]) [nM] | IC50 (HDAC2) [nM] | IC50 (HDAC6; [2]) [nM] | IC50 (HDAC6; [3]) [nM] | IC50 (U266 (multiple myelom); U-266, 72 h) [nM] | IC50 (PaCa2 (pancreatic); PaCa-2, 72 h) [nM] | IC50 ([1]; PBMC, 72 h) [nM] | IC50 (AMO-1 (plasmacytom); AMO1, 72 h) [nM] | IC50 (HDAC1) [nM] | IC50 (HDAC3) [nM] | IC50 (HDAC8) [nM] | IC50 (PaCa2 (pancreatic); [5]) [nM] | IC50 [1, 6] [nM] | IC50 (AMO-1 (plasmacytom); [7]) [nM] |
| --- | --- | --- | --- | --- | --- | --- | --- | --- | --- | --- | --- | --- | --- | --- |
| CC(C)c1ccc(-c2nc3cc(C(=O)NO)ccc3n2C)cc1 [Example 223, N-hydroxy-1-methyl-2-[4-(1-methylethyl)phenyl]-1H-benzimidazole-5-carboxamide] |  | 60000 | 28 | 28 | 8200 | 5400 | > 20000 | 18000 | 1600 | 4500 | 84 |  |  |  |
| Cn1c(-c2ccc(-c3ccccc3)cc2)nc2cc(C(=O)NO)ccc21 [Example 225, 2-biphenyl-4-yl-N-hydroxy-1-methyl-1H-benzimidazole-5-carboxamide] |  | > 200000 | 3.6 | 3.6 | 340 | 1000 | > 20000 | > 20000 | 326 | > 200000 | 74 |  |  |  |
| O=C(NO)c1ccc2nc(-c3ccc(-c4ccc(CN5CCOCC5)cc4)cc3)[nH]c2c1 [Example 190, N-hydroxy-2-[4′-(morpholin-4-ylmethyl)biphenyl-4-yl]-1H-benzimidazole-6-carboxamide trifluoroacetate] |  | 13000 | 21 | 21 | 3900 | 2300 | > 20000 | 8100 | 4000 | 910 | 80 |  |  |  |
| O=C(NO)c1ccc2nc(-c3ccc(-c4ccccc4)cc3)[nH]c2c1 [Example 6, 2-biphenyl-4-yl-N-hydroxy-1H-benzimidazole-6-carboxamide] |  | 160000 | 15 | 15 | 540 | 410 | > 20000 | 1700 | 51000 | 2100 | 470 |  |  |  |
